Results as given in article PMC7558026, “Exploring and applying the substrate promiscuity of a C-glycosyltransferase in the chemo-enzymatic synthesis of bioactive C-glycosides” (Nature Communications, 2020).
Numbering of substitutions follows the chain as printed. Numbers in names are those of the source. Where “and” joins values, the source holds several entries; their conditions need not be identical. Equal entries are not always repeated.

Legend:
Assay type in all cases: biochemical, Aloe barbadensis
[1] = system: AbCGT V183M; test: Glycosyltransferase activity of AbCGT variant V183M; conditions: pH 7.4, 30 °C, 12 h, Reaction-1 to -3
Method: (§1) The reaction mixture contained 0.5 mM sugar donors (1.0 mM for di-glycosylation), 0.25 mM aglycons, 50 mM Tris-HCl (pH 7.4), and 50‒100 μg of purified AbCGT in a final volume of 100 μL. Due to the instability of some acceptors in the buffer of pH 11.0, the reactions were performed under the physiological conditions (pH 7.4, 30 °C) to compare the catalytic activities of AbGT27 with different substrates under the same conditions. The reactions were performed at 30 °C for up to 12 h and terminated by the addition of 200 μL of ice-cold methanol. Subsequently, samples were centrifuged at 15,000 × g for 30 min to collect the supernatant, and aliquots were analyzed by HPLC-UV/ESIMS. HPLC analysis was performed on a Shiseido CAPCELL PAK C18 MG III column (250 mm × 4.6 mm I.D., 5 μm, Shiseido Co., Ltd., Japan) at a flow rate of 1 mL min^‒1. The mobile phase was a gradient elution of solvents A (0.1% formic acid aqueous solution) and B (methanol). The gradient programs were used for the analysis of the reactions (Supplementary Table 6). The conversion rates of the enzyme reactions were calculated from peak areas of glycosylated products and substrates as analyzed by HPLC. To facilitate inferential statistical analysis, three parallel assays were routinely performed; the means ± SD from triplicate analyses are reported here. […]

[2] = target: T1, AbCGT V183D (Aloe vera, UniProt A0A7G9P699, V183D); test: Glycosyltransferase activity of AbCGT variant V183D
T1 sequence (A0A7G9P699 1-470 V183D): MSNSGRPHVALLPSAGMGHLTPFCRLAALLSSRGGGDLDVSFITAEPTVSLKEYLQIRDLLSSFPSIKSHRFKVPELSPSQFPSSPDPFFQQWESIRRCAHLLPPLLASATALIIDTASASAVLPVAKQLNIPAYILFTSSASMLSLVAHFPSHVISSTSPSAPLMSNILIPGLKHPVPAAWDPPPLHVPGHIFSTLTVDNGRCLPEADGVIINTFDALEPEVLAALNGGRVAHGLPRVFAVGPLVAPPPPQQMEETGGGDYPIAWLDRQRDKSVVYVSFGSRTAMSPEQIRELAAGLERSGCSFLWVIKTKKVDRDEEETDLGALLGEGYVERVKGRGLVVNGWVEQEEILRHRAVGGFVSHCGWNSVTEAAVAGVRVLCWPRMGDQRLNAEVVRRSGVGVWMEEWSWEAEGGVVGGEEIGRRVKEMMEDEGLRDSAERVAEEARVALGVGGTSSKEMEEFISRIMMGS
Method: (§2) The reaction mixture contained 0.5 mM sugar donors (1.0 mM for di-glycosylation), 0.25 mM aglycons, 50 mM Tris-HCl (pH 7.4), and 50‒100 μg of purified AbCGT in a final volume of 100 μL. Due to the instability of some acceptors in the buffer of pH 11.0, the reactions were performed under the physiological conditions (pH 7.4, 30 °C) to compare the catalytic activities of AbGT27 with different substrates under the same conditions. The reactions were performed at 30 °C for up to 12 h and terminated by the addition of 200 μL of ice-cold methanol. Subsequently, samples were centrifuged at 15,000 × g for 30 min to collect the supernatant, and aliquots were analyzed by HPLC-UV/ESIMS. HPLC analysis was performed on a Shiseido CAPCELL PAK C18 MG III column (250 mm × 4.6 mm I.D., 5 μm, Shiseido Co., Ltd., Japan) at a flow rate of 1 mL min^‒1. The mobile phase was a gradient elution of solvents A (0.1% formic acid aqueous solution) and B (methanol). The gradient programs were used for the analysis of the reactions (Supplementary Table 6). The conversion rates of the enzyme reactions were calculated from peak areas of glycosylated products and substrates as analyzed by HPLC. To facilitate inferential statistical analysis, three parallel assays were routinely performed; the means ± SD from triplicate analyses are reported here.
(§3) Site-saturation mutagenesis of AbCGT at residue 183 was performed by PCR using pET28a-AbCGT as a template and the corresponding degenerate primers, which are listed in Supplementary Table 5. PCR products were purified and transformed into Trans1-T1 (DE3) E. coli. The sequences of pET28a-AbCGT mutants were confirmed by sequencing, and transformed into Transetta (DE3) E. coli for heterologous expression following protein purification.

[3] = target: T2, AbCGT V183E (Aloe vera, UniProt A0A7G9P699, V183E); test: Glycosyltransferase activity of AbCGT variant V183E
T2 sequence (A0A7G9P699 1-470 V183E): T1 sequence (A0A7G9P699 1-470 V183D) with D183E
Method: as §2, §3

[4] = system: AbCGT V183N; test: Glycosyltransferase activity of AbCGT variant V183N; conditions: pH 7.4, 30 °C, 12 h, Reaction-1 to -3
Method: as §1

[5] = system: AbCGT V183R; test: Glycosyltransferase activity of AbCGT variant V183R; conditions: pH 7.4, 30 °C, 12 h, Reaction-1 to -3
Method: as §1

[6] = system: AbCGT V183Q; test: Glycosyltransferase activity of AbCGT variant V183Q; conditions: pH 7.4, 30 °C, 12 h, Reaction-1 to -3
Method: as §1

[7] = system: AbCGT V183L; test: Glycosyltransferase activity of AbCGT variant V183L; conditions: pH 7.4, 30 °C, 12 h, Reaction-1 to -3
Method: as §1

[8] = target: T3, AbCGT (Aloe vera, UniProt A0A7G9P699); test: Glycosyltransferase activity assay, purified AbCGT (wild type) with aglycon acceptors and UDP-Glc; conditions: pH 7.4, 30 °C, 12 h, Reaction-1 to -3
[9] = target: T3, AbCGT; test: as above; conditions: for conversion rates, O,N,S-glycosylation / conversion rates, di-C-glycosylation / conversion rates, mono-C-glycosylation: aglycon acceptor with UDP-Glc, pH 7.4, 30 °C, up to 12 h, Reaction-1 to -3
[10] = system: AbCGT V183C; test: Glycosyltransferase activity of AbCGT variant V183C; conditions: pH 7.4, 30 °C, 12 h, Reaction-1 to -3
Method: as §1

[11] = target: T3, AbCGT; test: Kinetic parameters of AbCGT (wild type); conditions: acceptor varied, saturating UDP-Glc, pH 7.4, 30 °C
Method: (§4) The reactions terminated by the addition of 200 μL of ice-cold methanol. Subsequently, samples were centrifuged at 15,000 × g for 30 min to collect the supernatant, and aliquots were analyzed by HPLC as described above. All experiments were performed in triplicate. The value of Km was calculated with the method of Lineweaver–Burk plot.

[12] = substrate: CC(=O)c1c(O)cc(O)cc1O; test: Kinetic parameters of AbCGT (wild type); conditions: other: acceptor varied, UDP-Glc as donor, pH 7.4, 30 °C
Method: as §4

[13] = substrate: O=C1C[C@@](O)(c2ccc(O)cc2)Oc2cc(O)cc(O)c21; test: Kinetic parameters of AbCGT (wild type); conditions: other: acceptor varied, UDP-Glc as donor, pH 7.4, 30 °C
Method: as §4

[14] = substrate: O=C(CCc1ccc(O)cc1)c1c(O)cc(O)cc1O; test: Kinetic parameters of AbCGT (wild type); conditions: other: acceptor varied, UDP-Glc as donor, pH 7.4, 30 °C
Method: as §4

[15] = substrate: O=C1C[C@@](O)(c2ccc(O)cc2)Oc2cc(O)cc(O)c21; test: Kinetic parameters of AbCGT variant V183E; conditions: other: V183E, UDP-Glc as donor; pH 7.4; 30.0 °C
Method: (§5) Assays were performed in a final volume of 100 μL 50 mM Tris-HCl (pH 7.4) at 30 °C, and contained purified recombinant AbCGT (1.5 μg) and saturating UDP-Glc (5 mM) while varying phloracetophene (11) and phloretin (17) concentrations (5–500 μM), respectively. The reactions terminated by the addition of 200 μL of ice-cold methanol. Subsequently, samples were centrifuged at 15,000 × g for 30 min to collect the supernatant, and aliquots were analyzed by HPLC as described above. All experiments were performed in triplicate. The value of Km was calculated with the method of Lineweaver–Burk plot.
as §3

[16] = substrate: O=C1C[C@@](O)(c2ccc(O)cc2)Oc2cc(O)cc(O)c21; test: Kinetic parameters of AbCGT variant V183D; conditions: other: V183D, UDP-Glc as donor; pH 7.4; 30.0 °C
Method: as §5, §3

[17] = V183D, pH 7.4, 30 °C, 12 h, Reaction-1 to -3
[18] = V183E, pH 7.4, 30 °C, 12 h, Reaction-1 to -3

T3 sequence (A0A7G9P699 entry or part of it): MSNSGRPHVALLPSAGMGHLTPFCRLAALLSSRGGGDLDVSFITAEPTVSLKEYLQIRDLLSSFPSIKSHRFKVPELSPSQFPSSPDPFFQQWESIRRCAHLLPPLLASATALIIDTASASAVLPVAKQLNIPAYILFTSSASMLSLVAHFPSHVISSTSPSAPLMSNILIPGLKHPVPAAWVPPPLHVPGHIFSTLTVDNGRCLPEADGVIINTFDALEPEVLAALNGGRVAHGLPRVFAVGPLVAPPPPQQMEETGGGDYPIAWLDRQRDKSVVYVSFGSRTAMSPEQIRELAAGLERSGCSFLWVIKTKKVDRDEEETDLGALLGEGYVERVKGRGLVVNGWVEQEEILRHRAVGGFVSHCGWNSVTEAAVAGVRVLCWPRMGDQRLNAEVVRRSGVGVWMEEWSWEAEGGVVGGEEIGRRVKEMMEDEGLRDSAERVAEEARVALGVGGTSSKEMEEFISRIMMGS

O=C1CC(O)(c2ccc(O)cc2)Oc2cc(O)cc(O)c21 (stereo not shown) [Compound 23, 2-hydroxynaringenin]
conversion rates of 2-hydroxynaringenin, C-glycosylation [1]: 80.2% and 82.7% and 79.5%
conversion rates of 2-hydroxynaringenin, O-glycosylation [1]: 19.8% and 17.3% and 20.5%
conversion rates of 2-hydroxynaringenin, C-glycosylation [2, 17]: 99.7% and 99.5%
conversion rates of 2-hydroxynaringenin, O-glycosylation [2, 17]: 0.3% and 0.5%
V183D/yield of C-glycoside(%) ([2]; reaction-1): 99.3%
V183D/yield of O-glycoside(%) ([2]; reaction-1): 0.7%
V183D/yield of C-glycoside(%) ([2]; reaction-2): 99.5%
V183D/yield of O-glycoside(%) ([2]; reaction-2): 0.5%
V183D/yield of C-glycoside(%) ([2]; reaction-3): 99.2%
V183D/yield of O-glycoside(%) ([2]; reaction-3): 0.8%
conversion rates of 2-hydroxynaringenin, C-glycosylation [3, 18]: 99.8% and 99.6%
conversion rates of 2-hydroxynaringenin, O-glycosylation [3, 18]: 0.2% and 0.4%
V183E/yield of O-glycoside(%) ([3]; reaction-1): 0% and 0.5%
V183E/yield of O-glycoside(%) ([3]; reaction-2): 0% and 0.3%
V183E/yield of O-glycoside(%) ([3]; reaction-3): 0% and 0.8%
conversion rates of 2-hydroxynaringenin, C-glycosylation [4]: 95.8% and 95.1% and 94.3%
conversion rates of 2-hydroxynaringenin, O-glycosylation [4]: 4.2% and 4.9% and 5.7%
conversion rates of 2-hydroxynaringenin, C-glycosylation [5]: 64.9% and 75.1% and 70.5%
conversion rates of 2-hydroxynaringenin, O-glycosylation [5]: 3.4% and 2.7% and 2.9%
conversion rates of 2-hydroxynaringenin, C-glycosylation [6]: 88.9% and 88.2%
conversion rates of 2-hydroxynaringenin, O-glycosylation [6]: 11.1% and 11.8%
conversion rates of 2-hydroxynaringenin, C-glycosylation [7]: 83% and 80% and 76.5%
conversion rates of 2-hydroxynaringenin, O-glycosylation [7]: 17% and 20% and 23.5%
conversion rates of 2-hydroxynaringenin, C-glycosylation [8]: 85.9% and 83.4% and 85%
conversion rates of 2-hydroxynaringenin, O-glycosylation [8]: 14.1% and 16.6% and 15%
conversion rates, O,N,S-glycosylation [9]: 16.7% and 14.4% and 17.2%
conversion rates, di-C-glycosylation [9]: 0%
conversion rates, mono-C-glycosylation [9]: 83.3% and 85.6% and 82.8%
WT/yield of C-glycoside(%) ([9]; reaction-1): 82%
WT/yield of O-glycoside(%) ([9]; reaction-1): 18.7%
WT/yield of C-glycoside(%) ([9]; reaction-2): 84.9%
WT/yield of O-glycoside(%) ([9]; reaction-2): 16.2%
WT/yield of C-glycoside(%) ([9]; reaction-3): 83.2%
WT/yield of O-glycoside(%) ([9]; reaction-3): 17.8%
conversion rates of 2-hydroxynaringenin, C-glycosylation [10]: 85.3% and 83.5%
conversion rates of 2-hydroxynaringenin, O-glycosylation [10]: 14.7% and 16.5%

CC(=O)c1c(O)cc(O)cc1O [Compound 11, phloracetophene]
Kcat [11]: 144 min⁻¹
conversion rates, O,N,S-glycosylation [9]: 0%
conversion rates, di-C-glycosylation [9]: 100%
conversion rates, mono-C-glycosylation [9]: 0%

B1: AbCGT (Aloe vera) (protein)
chain: T1 sequence (A0A7G9P699 1-470 V183D) with D183V
Km [12]: 176.2 ± 11.7 µM
kcat [12]: 144 ± 9.1 min⁻¹
Km [13]: 414.5 ± 23.7 µM
Km [14]: 146.0 ± 10.2 µM
kcat [14]: 120 ± 8.3 min⁻¹

B2: AbCGT V183E (Aloe vera; V183E) (protein)
chain: T1 sequence (A0A7G9P699 1-470 V183D) with D183E
Km [15]: 325.4 ± 19.2 µM
kcat/Km [15]: 2.09 min⁻¹ M⁻¹

B3: AbCGT V183D (Aloe vera; V183D) (protein)
chain: T1 sequence (A0A7G9P699 1-470 V183D)
Km [16]: 209.3 ± 14.3 µM
kcat/Km [16]: 1.70 min⁻¹ M⁻¹
